The results in this text go back to patent US6093732A, “4-hydroxyquinoline-3-carboxamides and hydrazides as antiviral agents” (Pharmacia & Upjohn Company, priority 1998, dated 2000).

For orientation: IC50 means the point on the concentration scale where inhibition reaches its midpoint.

T1 sequence (P08546 whole entry): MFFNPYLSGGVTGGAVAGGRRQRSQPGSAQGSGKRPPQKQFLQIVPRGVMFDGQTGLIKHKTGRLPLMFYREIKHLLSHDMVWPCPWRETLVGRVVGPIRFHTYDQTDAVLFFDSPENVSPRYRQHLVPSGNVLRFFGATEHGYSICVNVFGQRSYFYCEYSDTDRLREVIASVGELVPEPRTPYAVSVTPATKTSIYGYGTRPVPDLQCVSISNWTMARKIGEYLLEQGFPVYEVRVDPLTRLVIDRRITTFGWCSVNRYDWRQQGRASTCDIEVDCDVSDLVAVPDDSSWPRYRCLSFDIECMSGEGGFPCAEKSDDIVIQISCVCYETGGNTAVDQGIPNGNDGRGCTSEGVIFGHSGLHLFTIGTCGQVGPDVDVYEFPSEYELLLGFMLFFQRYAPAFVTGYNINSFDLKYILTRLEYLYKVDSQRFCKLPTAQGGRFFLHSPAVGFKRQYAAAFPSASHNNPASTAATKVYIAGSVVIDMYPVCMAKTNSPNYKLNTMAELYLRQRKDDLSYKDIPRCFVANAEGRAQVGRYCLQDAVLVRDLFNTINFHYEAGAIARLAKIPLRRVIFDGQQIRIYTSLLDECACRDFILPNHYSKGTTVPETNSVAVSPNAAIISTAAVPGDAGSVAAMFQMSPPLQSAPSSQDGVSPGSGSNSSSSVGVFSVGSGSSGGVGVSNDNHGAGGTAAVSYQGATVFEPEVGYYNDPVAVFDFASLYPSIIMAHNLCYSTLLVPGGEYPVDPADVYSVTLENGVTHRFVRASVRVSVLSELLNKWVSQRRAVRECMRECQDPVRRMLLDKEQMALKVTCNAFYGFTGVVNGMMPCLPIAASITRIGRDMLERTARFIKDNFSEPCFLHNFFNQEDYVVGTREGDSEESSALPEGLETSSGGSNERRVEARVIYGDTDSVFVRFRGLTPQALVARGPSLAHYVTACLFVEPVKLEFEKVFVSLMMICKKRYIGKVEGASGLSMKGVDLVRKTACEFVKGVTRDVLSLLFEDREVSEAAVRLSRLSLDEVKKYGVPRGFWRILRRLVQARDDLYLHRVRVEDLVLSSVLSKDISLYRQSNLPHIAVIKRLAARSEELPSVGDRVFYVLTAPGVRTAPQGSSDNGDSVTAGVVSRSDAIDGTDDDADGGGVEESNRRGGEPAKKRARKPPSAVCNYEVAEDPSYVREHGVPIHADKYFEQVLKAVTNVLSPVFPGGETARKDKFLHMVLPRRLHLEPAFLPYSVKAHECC

This assay addresses T1, HCMV polymerase (Human cytomegalovirus, UniProt P08546).
T1 construct: made in house; host or cells: recombinant baculovirus-infected SF-9 cells
The assay can be described thus: HCMV polymerase scintillation proximity assay (SPA), modified version. In kind it is biochemical. Particulars: CMV polymerase; Table 1; modified assay with 4.5 mM DTT, compounds in 100% DMSO; read-out: Antiviral Selective Polymerase IC50 Values, CMV. The method in brief:
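Recombinant polymerase (baculovirus/SF-9) in 5.4 mM HEPES pH 7.5, 11.7 mM KCl, 4.5 mM MgCl2, 0.36 mg/ml BSA, 90 nM 3H-dTTP, ±2 mM CHAPS; started with 6 nM biotinylated poly(dA)-oligo(dT), 25° C or 37° C, EDTA-stopped in linear range (30 min for HCMV). Streptavidin-SPA read; IC50 by linear regression. Modified version: 100% DMSO compound dilution, 4.5 mM DTT added.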
(In general: In a scintillation proximity assay essentially only radioactivity close to the scintillant gives light.)
In the case of `O=C(NCc1ccc(Cl)cc1)c1cc(F)c2ncc(C(=O)NCc3ccc(Cl)cc3)c(O)c2c1` [Example 185, N^3,N^6 -Bis(4-chlorobenzyl)-8-fluoro-4-hydroxy-3,6-quinolinedicarboxamide], the concentration for half-maximal inhibition (IC50) came to 32.8 µM.

Consider `Nc1cc(F)c2ncc(C(=O)NCc3ccc(Cl)cc3)c(O)c2c1` [Example 186, 6-Amino-N-(4-chlorobenzyl)-8-fluoro-4-hydroxy-3-quinolinecarboxamide], for which the IC50 was found to be 13.8 µM. The result for `COc1ccc(S(=O)(=O)Nc2cc(F)c3ncc(C(=O)NCc4ccc(Cl)cc4)c(O)c3c2)cc1` [Example 187, N-(4-Chlorobenzyl)-8-fluoro-4-hydroxy-6-{[(4-methoxyphenyl)-sulfonyl]amino}-3-quinolinecarboxamide] reads 17.7 µM. In the case of `O=C(NCc1ccc(Cl)cc1)c1cnc2ccc(NCCO)cc2c1O` [Example 188, N-(4-Chlorobenzyl)-4-hydroxy-6-[(2-hydroxyethyl)amino]-3-quinolinecarboxamide], the IC50 worked out at 2.1 µM. For `CCN(CCO)c1ccc2ncc(C(=O)NCc3ccc(Cl)cc3)c(O)c2c1` [Example 189, N-(4-Chlorobenzyl)-6-[ethyl(2-hydroxyethyl)amino]-4-hydroxy-3-quinolinecarboxamide], the IC50 was 19.4 µM.

For `O=C(NCc1ccc(Cl)cc1)c1cnc2ccc(N3CCOC3=O)cc2c1O` [Example 190, N-(4-Chlorobenzyl)-4-hydroxy-6-(2-oxo-1,3-oxazolidin-3-yl)-3-quinolinecarboxamide], the IC50 was 2.7 µM. The result for `O=C(NCc1ccc(Cl)cc1)c1cnc2c(F)cc(S(=O)(=O)NCc3cccc4ccccc34)cc2c1O` [Example 192, N-(4-Chlorobenzyl)-8-fluoro-4-hydroxy-6-{[(1-naphthylmethyl)aminor]-sulfonyl}-3-quinolinecarboxamide] reads 1.6 µM. The result for `O=C(NCc1ccc(Cl)cc1)c1cnc2c(F)cc(S(=O)(=O)NCCc3c[nH]c4ccccc34)cc2c1O` [Example 193, N-(4-Chlorobenzyl)-8-fluoro-4-hydroxy-6-({[2-(1H-indol-3-yl)ethyl]-amino)sulfonyl)-3-quinolinecarboxamide] reads 2.7 µM. Next, `O=C(NCc1ccc(Cl)cc1)c1cnc2c(F)cc(S(=O)(=O)NCc3ccco3)cc2c1O` [Example 194, N-(4-Chlorobenzyl)-8-fluoro-6-{[(2-furylmethyl)amino]sulfonyl}-4-hydroxy-3-quinolinecarboxamide]: 15.3 µM; `O=C(NCc1ccc(Cl)cc1)c1cnc2c(F)cc(S(=O)(=O)N(CCO)CCO)cc2c1O` [Example 195, 6-{[Bis(2-hydroxyethyl)amino]sulfonyl}-N-(4-chlorobenzyl)-8-fluoro-4-hydroxy-3-quinolinecarboxamide]: 18.3 µM. In the case of `CCOC(=O)CNS(=O)(=O)c1cc(F)c2ncc(C(=O)NCc3ccc(Cl)cc3)c(O)c2c1` [Example 196, Ethyl 2-{[(3-{[(4-chlorobenzyl)amino]carbonyl}-8-fluoro-4-hydroxy-6-quinolinyl)sulfonyl]amino) acetate], the 50% inhibitory concentration (IC50) worked out at 19.4 µM. With `O=C(NCc1ccc(Cl)cc1)c1cnc2c(F)cc(S(=O)(=O)NCCO)cc2c1O` [Example 197, N-(4-Chlorobenzyl)-8-fluoro-4-hydroxy-6-{[(2-hydroxyethyl)amino]-sulfonyl}-3-quinolinecarboxamide], the 50% inhibitory concentration (IC50) was found to be 19.6 µM. Next, `O=C(NCc1ccc(Cl)cc1)c1cnc2c(F)cc(S(=O)(=O)N3CCOCC3)cc2c1O` [Example 198, N-(4-Chlorobenzyl)-8-fluoro-4-hydroxy-6-(4-morpholinylsulfonyl)-3-quinolinecarboxamide]: 21 µM. Next, `O=C(NCc1ccc(Cl)cc1)c1cnc2c(F)cc(S(=O)(=O)NCc3ccccn3)cc2c1O` [Example 199, N-(4-Chlorobenzyl)-8-fluoro-4-hydroxy-6-{[(2-pyridinylmethyl)amino]-sulfonyl}-3-quinolinecarboxamide]: 26.4 µM; `O=C(NCc1ccc(Cl)cc1)c1cnc2c(F)cc(S(=O)(=O)Nc3ccccn3)cc2c1O` [Example 200, N-(4-Chlorobenzyl)-8-fluoro-4-hydroxy-6-[(2-pyridinylamino)-sulfonyl]-3-quinolinecarboxamide]: 38.8 µM; `O=C(NCc1ccc(Cl)cc1)c1cnc2c(F)cc(S(=O)(=O)NCC3CCCCC3)cc2c1O` [Example 201, N-(4-chlorobenzyl)-6-{[(cyclohexylmethyl)amino]sulfonyl}-8-fluoro-4-hydroxy-3-quinolinecarboxamide]: 6 µM. Next, `CN1CCCC1CCNS(=O)(=O)c1cc(F)c2ncc(C(=O)NCc3ccc(Cl)cc3)c(O)c2c1` (stereo not drawn) [Example 202, N-(4-chlorobenzyl)-8-fluoro-4-hydroxy-6-({[2-(1-methyl-2-pyrrolidinyl)ethyl]amino}sulfonyl)-3-quinolinecarboxamide]: at least 50 µM. Regarding `O=C(NCc1ccc(Cl)cc1)c1cnc2c(F)cc(S(=O)(=O)NCCN3CCCC3)cc2c1O` [Example 203, N-(4-chlorobenzyl)-8-fluoro-4-hydroxy-6-({[2-(1-pyrrolidinyl)ethyl]amino}sulfonyl)-3-quinolinecarboxamide], the IC50 stood at 38.8 µM. The result for `O=C(NCc1ccc(Cl)cc1)c1cnc2c(F)cc(S(=O)(=O)NCc3ccco3)cc2c1O` [Example 204, N-(4-chlorobenzyl)-8-fluoro-6-{[(2-furylmethyl)amino]sulfonyl}-4-hydroxy-3-quinolinecarboxamide] reads 13.8 µM; that for `O=C(NCc1ccc(Cl)cc1)c1cnc2c(F)cc(S(=O)(=O)NCCCNC3CCCCC3)cc2c1O` [Example 205, N-(4-chlorobenzyl)-6-({[3-(cyclohexylamino)propyl]amino}sulfonyl)-8-fluoro-4-hydroxy-3-quinolinecarboxamide], at least 50 µM; that for `O=C(NCc1ccc(Cl)cc1)c1cnc2c(F)cc(S(=O)(=O)NCc3cccc4ccccc34)cc2c1O` [Example 206, N-(4-chlorobenzyl)-8-fluoro-4-hydroxy-6-{[(1-naphthylmethyl)amino]sulfonyl}-3-quinolinecarboxamide], 2.4 µM. Next, `O=C(NCc1ccc(Cl)cc1)c1cnc2c(F)cc(S(=O)(=O)NCCc3c[nH]cn3)cc2c1O` [Example 207, N-(4-chlorobenzyl)-8-fluoro-4-hydroxy-6-({[2-(1H-imidazol-4-yl)ethyl]amino}sulfonyl)-3-quinolinecarboxamide]: 14.4 µM; `O=C(NCc1ccc(Cl)cc1)c1cnc2c(F)cc(S(=O)(=O)NCC3CCCO3)cc2c1O` (stereo not drawn) [Example 208, N-(4-chlorobenzyl)-8-fluoro-4-hydroxy-6-{[(tetrahydro-2-furanylmethyl)amino]sulfonyl}-3-quinolinecarboxamide]: 41.6 µM. The result for `O=C(NCc1ccc(Cl)cc1)c1cnc2c(F)cc(S(=O)(=O)NCc3cccs3)cc2c1O` [Example 209, N-(4-chlorobenzyl)-8-fluoro-4-hydroxy-6-{[(2-thienylmethyl)amino]sulfonyl}-3-quinolinecarboxamide] reads 8.6 µM; that for `O=C(NCc1ccc(Cl)cc1)c1cnc2c(F)cc(S(=O)(=O)NCCc3c[nH]c4ccccc34)cc2c1O` [Example 210, N-(4-chlorobenzyl)-8-fluoro-4-hydroxy-6-({[2-(1H-indol-3-yl)ethyl]amino}sulfonyl)-3-quinolinecarboxamide], 4.8 µM. For `COc1ccc2[nH]cc(CCNS(=O)(=O)c3cc(F)c4ncc(C(=O)NCc5ccc(Cl)cc5)c(O)c4c3)c2c1` [Example 211, N-(4-chlorobenzyl)-8-fluoro-4-hydroxy-6-({[2-(5-methoxy-1H-indol-3-yl)ethyl]amino}sulfonyl)-3-quinolinecarboxamide], the concentration for half-maximal inhibition (IC50) was 5.1 µM. The result for `O=C(NCc1ccc(Cl)cc1)c1cnc2c(F)cc(S(=O)(=O)NCc3ccc4c(c3)OCO4)cc2c1O` [Example 212, 6-{[(1,3-benzodioxol-5-ylmethyl)amino]sulfonyl}-N-(4-chlorobenzyl)-8-fluoro-4-hydroxy-3-quinolinecarboxamide] reads 14.5 µM; that for `O=C(NCc1ccc(Cl)cc1)c1cnc2c(F)cc(S(=O)(=O)NCCN3CCOCC3)cc2c1O` [Example 213, N-(4-chlorobenzyl)-8-fluoro-4-hydroxy-6-{[(2-morpholinoethyl)amino]sulfonyl}-3-quinolinecarboxamide], 18.9 µM; that for `O=C(NCc1ccc(Cl)cc1)c1cnc2c(F)cc(S(=O)(=O)NCCCN3CCOCC3)cc2c1O` [Example 214, N-(4-chlorobenzyl)-8-fluoro-4-hydroxy-6-{[(3-morpholinopropyl)amino]sulfonyl}-3-quinolinecarboxamide], 29.7 µM. Take `O=C(NCc1ccc(Cl)cc1)c1cnc2c(F)cc(S(=O)(=O)NCCNc3ccc([N+](=O)[O-])cn3)cc2c1O` [Example 215, N-(4-chlorobenzyl)-8-fluoro-4-hydroxy-6-[({2-[(5-nitro-2-pyridinyl)amino]ethyl}amino)sulfonyl]-3-quinolinecarboxamide]: the half-inhibitory concentration (IC50) amounted to 8.6 µM. The result for `O=C(NCc1ccc(Cl)cc1)c1cnc2c(F)cc(S(=O)(=O)NCc3ccccn3)cc2c1O` [Example 216, N-(4-chlorobenzyl)-8-fluoro-4-hydroxy-6-{[(2-pyridinylmethyl)amino]sulfonyl}-3-quinolinecarboxamide] reads 18.7 µM; that for `O=C(NCc1ccc(Cl)cc1)c1cnc2c(F)cc(S(=O)(=O)NCCc3ccccn3)cc2c1O` [Example 217, N-(4-chlorobenzyl)-8-fluoro-4-hydroxy-6-({[2-(2-pyridinyl)ethyl]amino}sulfonyl)-3-quinolinecarboxamide], 15.2 µM. On to `O=C(NCc1ccc(Cl)cc1)c1cnc2c(F)cc(S(=O)(=O)NCc3cccnc3)cc2c1O` [Example 218, N-(4-chlorobenzyl)-8-fluoro-4-hydroxy-6-{[(3-pyridinylmethyl)amino]sulfonyl}-3-quinolinecarboxamide], for which the IC50 was found to be 17.6 µM.
